Test results published in patent US8088930B2, “Benzimidazole derivatives” (Hoffmann-La Roche Inc., priority 2008, dated 2012).
pIC50: −log10 of the molar value. Like-named read-outs stand apart in the source and are kept apart here.

Target: T1, FXR ligand binding domain (GST-FXR LBD fusion protein, human FXR aa 193-473) (Homo sapiens, UniProt Q96RI1)
T1 construct: fused on or other part: Glutathione-S-transferase (GST) fused N-terminally to the FXR LBD, used to capture the protein on glutathione SPA beads
T1 sequence (Q96RI1 211-486 limits assumed): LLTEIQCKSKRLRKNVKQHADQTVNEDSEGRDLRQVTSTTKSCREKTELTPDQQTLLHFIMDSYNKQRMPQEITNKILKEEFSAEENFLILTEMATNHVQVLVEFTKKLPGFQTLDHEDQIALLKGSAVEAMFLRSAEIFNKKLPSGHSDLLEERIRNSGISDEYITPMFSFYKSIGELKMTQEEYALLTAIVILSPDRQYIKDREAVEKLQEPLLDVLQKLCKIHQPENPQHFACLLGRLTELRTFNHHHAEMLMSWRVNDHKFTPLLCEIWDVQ
Test: Radioligand binding assay (scintillation proximity, radioligand displacement)
Details: 40 nM GST-FXR LBD on SPA beads, test compound 6×10^−9 M to 2.5×10^−5 M
Method in brief: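 40 nM GST-FXR LBD, E. coli-expressed, bound to glutathione yttrium silicate SPA beads in 50 mM Hepes pH 7.4, 10 mM NaCl, 5 mM MgCl2, 0.01% CHAPS. Test compounds displace radioligand (e.g. 20 nM benzimidazolyl-acetamide ligand); bound ligand measured by scintillation proximity counting.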

COc1ccc(-c2nc3cc(F)c(F)cc3n2C(CCc2ccc(C(=O)O)cc2)C2CCCCC2)c(OC)n1 (single isomer, unassigned; (-)) [Example 146, (−)-4-{3-Cyclohexyl-3-[2-(2,6-dimethoxy-pyridin-3-yl)-5,6-difluoro-benzoimidazol-1-yl]-propyl}-benzoic acid] showed a pIC50 (read-out: h-IC50 Binding) of 9.00.
Compound Fc1cc2nc(-c3ccc(Cl)cc3)n([C@H](COCC3CCCCC3)C3CCCCC3)c2cc1F [Example 3, (+)-2-(4-Chloro-phenyl)-1-((S)-1-cyclohexyl-2-cyclohexylmethoxy-ethyl)-5,6-difluoro-1H-benzoimidazole] has a pIC50 (read-out: h-IC50 Binding) of 4.49.
O=C(O)c1ccc(OCC(C2CCCCC2)n2c(-c3ccc(Cl)cc3)nc3cc(F)c(F)cc32)cc1 (stereo not shown) [Example 4, 4-{2-[2-(4-Chloro-phenyl)-5,6-difluoro-benzoimidazol-1-yl]-2-cyclohexyl-ethoxy}-benzoic acid] was tested, and the pIC50 (read-out: h-IC50 Binding) was 7.15.
O=C(O)c1ccc(OCC(C2CCCCC2)n2c(-c3ccc(Cl)cc3)nc3cc(F)c(F)cc32)c(F)c1 (stereo not shown) [Example 7, 4-{2-[2-(4-Chloro-phenyl)-5,6-difluoro-benzoimidazol-1-yl]-2-cyclohexyl-ethoxy}-3-fluorobenzoic acid] gave a pIC50 (h-IC50 Binding) of 7.70.
Compound O=C(O)c1ccc(OCC(C2CCCCC2)n2c(-c3ccc(Cl)cc3)nc3cc(F)c(F)cc32)c(Cl)c1 (stereo not shown) [Example 10, 3-Chloro-4-{2-[2-(4-chloro-phenyl)-5,6-difluoro-benzoimidazol-1-yl]-2-cyclohexyl-ethoxy}-benzoic acid] has a pIC50 (h-IC50 Binding) of 7.52.
For Cc1cc(C(=O)O)ccc1OCC(C1CCCCC1)n1c(-c2ccc(Cl)cc2)nc2cc(F)c(F)cc21 (stereo not shown) [Example 11, 4-{2-[2-(4-Chloro-phenyl)-5,6-difluoro-benzoimidazol-1-yl]-2-cyclohexyl-ethoxy}-3-methyl-benzoic acid], the pIC50 (read-out: h-IC50 Binding) was 7.70.
O=C(O)c1ccccc1OCC(C1CCCCC1)n1c(-c2ccc(Cl)cc2)nc2cc(F)c(F)cc21 (stereo not shown) [Example 14, 2-{2-[2-(4-Chloro-phenyl)-5,6-difluoro-benzoimidazol-1-yl]-2-cyclohexyl-ethoxy}-benzoic acid] showed a pIC50 (read-out: h-IC50 Binding) of 5.70.
O=C(O)c1cccc(OCC(C2CCCCC2)n2c(-c3ccc(Cl)cc3)nc3cc(F)c(F)cc32)c1 (stereo not shown) [Example 15, 3-{2-[2-(4-Chloro-phenyl)-5,6-difluoro-benzoimidazol-1-yl]-2-cyclohexyl-ethoxy}-benzoic acid] was tested, and the pIC50 (read-out: h-IC50 Binding) was 7.15.
Cc1ccc(C(=O)O)cc1OCC(C1CCCCC1)n1c(-c2ccc(Cl)cc2)nc2cc(F)c(F)cc21 (stereo not shown) [Example 16, 3-{2-[2-(4-Chloro-phenyl)-5,6-difluoro-benzoimidazol-1-yl]-2-cyclohexyl-ethoxy}-4-methyl-benzoic acid] showed a pIC50 (read-out: h-IC50 Binding) of 6.70.
For Cc1c(OCC(C2CCCCC2)n2c(-c3ccc(Cl)cc3)nc3cc(F)c(F)cc32)cccc1C(=O)O (stereo not shown) [Example 17, 3-{2-[2-(4-Chloro-phenyl)-5,6-difluoro-benzoimidazol-1-yl]-2-cyclohexyl-ethoxy}-2-methyl-benzoic acid], the pIC50 (read-out: h-IC50 Binding) was 6.70.
In the case of O=C(O)c1ccc(OCC(C2CCCCC2)n2c(-c3ccc(Cl)cc3)nc3cc(F)c(F)cc32)cn1 (stereo not shown) [Example 18, 5-{2-[2-(4-Chloro-phenyl)-5,6-difluoro-benzoimidazol-1-yl]-2-cyclohexyl-ethoxy}-pyridine-2-carboxylic acid], the pIC50 (read-out: h-IC50 Binding) was 5.89.
O=C(O)c1ccc(OCC(C2CCCCC2)n2c(-c3ccc(Cl)cc3)nc3cc(F)c(F)cc32)nc1 (stereo not shown) [Example 19, 6-{2-[2-(4-Chloro-phenyl)-5,6-difluoro-benzoimidazol-1-yl]-2-cyclohexyl-ethoxy}-nicotinic acid] gave a pIC50 (read-out: h-IC50 Binding) of 7.30.
Compound O=C(O)c1cnc(OCC(C2CCCCC2)n2c(-c3ccc(Cl)cc3)nc3cc(F)c(F)cc32)c(Cl)c1 (stereo not shown) [Example 22, 5-Chloro-6-{2-[2-(4-chloro-phenyl)-5,6-difluoro-benzoimidazol-1-yl]-2-cyclohexyl-ethoxy}-nicotinic acid] has a pIC50 (read-out: h-IC50 Binding) of 7.52.
Compound Cc1nc(C(=O)O)ncc1OCC(C1CCCCC1)n1c(-c2ccc(Cl)cc2)nc2cc(F)c(F)cc21 (stereo not shown) [Example 25, 5-{2-[2-(4-Chloro-phenyl)-5,6-difluoro-benzoimidazol-1-yl]-2-cyclohexyl-ethoxy}-4-methyl-pyrimidine-2-carboxylic acid] has a pIC50 (read-out: h-IC50 Binding) of 6.10.
With O=C(O)c1cnc(OCC(C2CCCCC2)n2c(-c3ccc(Cl)cc3)nc3cc(F)c(F)cc32)c2ccsc12 (stereo not shown) [Example 26, 4-{2-[2-(4-Chloro-phenyl)-5,6-difluoro-benzoimidazol-1-yl]-2-cyclohexyl-ethoxy}-thieno[3,2-c]pyridine-7-carboxylic acid] the pIC50 (read-out: h-IC50 Binding) was 7.70.
In the case of Fc1cc2nc(-c3ccc(Cl)cc3)n(C(COc3ccccn3)C3CCCCC3)c2cc1F (stereo not shown) [Example 29, 2-(4-Chloro-phenyl)-1-[1-cyclohexyl-2-(pyridin-2-yloxy)-ethyl]-5,6-difluoro-1H-benzoimidazole], the pIC50 (read-out: h-IC50 Binding) was 6.70.
In the case of O=C(O)c1cccc(OCC(C2CCCCC2)n2c(-c3ccc(Cl)cc3)nc3cc(F)c(F)cc32)n1 (stereo not shown) [Example 30, 6-{2-[2-(4-Chloro-phenyl)-5,6-difluoro-benzoimidazol-1-yl]-2-cyclohexyl-ethoxy}-pyridine-2-carboxylic acid], the pIC50 (read-out: h-IC50 Binding) was 6.30.
COc1cc(C(=O)O)cc(OCC(C2CCCCC2)n2c(-c3ccc(Cl)cc3)nc3cc(F)c(F)cc32)n1 (stereo not shown) [Example 31, 2-{2-[2-(4-Chloro-phenyl)-5,6-difluoro-benzoimidazol-1-yl]-2-cyclohexyl-ethoxy}-6-methoxy-isonicotinic acid] gave a pIC50 (read-out: h-IC50 Binding) of 6.22.
With O=C(O)c1ccc(OCC(C2CCCCC2)n2c(-c3ccc(Cl)cc3)nc3ccccc32)cc1 (stereo not shown) [Example 32, 4-{2-[2-(4-Chloro-phenyl)-benzoimidazol-1-yl]-2-cyclohexyl-ethoxy}-benzoic acid] the pIC50 (read-out: h-IC50 Binding) was 6.00.
O=C(O)c1ccc(OCC(C2CCCCC2)n2c(-c3ccc(Cl)cc3)nc3ccccc32)c(F)c1 (stereo not shown) [Example 33, 4-{2-[2-(4-Chloro-phenyl)-benzoimidazol-1-yl]-2-cyclohexyl-ethoxy}-3-fluoro-benzoic acid] gave a pIC50 (read-out: h-IC50 Binding) of 6.30.
Fc1cc2nc(-c3ccc(Cl)cc3)n(C(COc3ccccc3F)C3CCCCC3)c2cc1F (stereo not shown) [Example 34, 2-(4-Chloro-phenyl)-1-[1-cyclohexyl-2-(2-fluoro-phenoxy)-ethyl]-5,6-difluoro-1H-benzoimidazole] was tested, and the pIC50 (read-out: h-IC50 Binding) was 7.40.
Fc1cc2nc(-c3ccc(Cl)cc3)n(C(COc3cccnc3)C3CCCCC3)c2cc1F (stereo not shown) [Example 35, 2-(4-Chloro-phenyl)-1-[1-cyclohexyl-2-(pyridin-3-yloxy)-ethyl]-5,6-difluoro-1H-benzoimidazole] gave a pIC50 (read-out: h-IC50 Binding) of 6.70.
Fc1cc2nc(-c3ccc(Cl)cc3)n(C(COc3ccncc3)C3CCCCC3)c2cc1F (stereo not shown) [Example 36, 2-(4-Chloro-phenyl)-1-[1-cyclohexyl-2-(pyridin-4-yloxy)-ethyl]-5,6-difluoro-1H-benzoimidazole] was tested, and the pIC50 (read-out: h-IC50 Binding) was 7.05.
O=C(O)c1ccnc(OCC(C2CCCCC2)n2c(-c3ccc(Cl)cc3)nc3cc(F)c(F)cc32)c1 (stereo not shown) [Example 37, 2-{2-[2-(4-Chloro-phenyl)-5,6-difluoro-benzoimidazol-1-yl]-2-cyclohexyl-ethoxy}-isonicotinic acid] showed a pIC50 (read-out: h-IC50 Binding) of 6.40.
Fc1cc2nc(-c3ccc(Cl)cc3)n(C(COc3ccccc3)C3CCCCC3)c2cc1F (stereo not shown) [Example 38, 2-(4-Chloro-phenyl)-1-(1-cyclohexyl-2-phenoxy-ethyl)-5,6-difluoro-1H-benzoimidazole] gave a pIC50 (read-out: h-IC50 Binding) of 7.00.
O=C(O)c1ccc(OCC(C2CCCCC2)n2c(-c3ccc(Cl)cc3)nc3cc(F)c(F)cc32)c(C(F)(F)F)c1 (stereo not shown) [Example 39, 4-{2-[2-(4-Chloro-phenyl)-5,6-difluoro-benzoimidazol-1-yl]-2-cyclohexyl-ethoxy}-3-trifluoromethyl-benzoic acid] showed a pIC50 (read-out: h-IC50 Binding) of 7.52.
O=C(O)c1c(F)cc(OCC(C2CCCCC2)n2c(-c3ccc(Cl)cc3)nc3cc(F)c(F)cc32)cc1F (stereo not shown) [Example 42, 4-{2-[2-(4-Chloro-phenyl)-5,6-difluoro-benzoimidazol-1-yl]-2-cyclohexyl-ethoxy}-2,6-difluoro-benzoic acid] was tested, and the pIC50 (read-out: h-IC50 Binding) was 6.70.
O=C(O)COc1ccc(OCC(C2CCCCC2)n2c(-c3ccc(Cl)cc3)nc3cc(F)c(F)cc32)nc1 (stereo not shown) [Example 45, (6-{2-[2-(4-Chloro-phenyl)-5,6-difluoro-benzoimidazol-1-yl]-2-cyclohexyl-ethoxy}-pyridin-3-yloxy)-acetic acid] gave a pIC50 (read-out: h-IC50 Binding) of 7.70.
Compound COc1ccc(-c2nc3cc(F)c(F)cc3n2C(COc2ccc(C(=O)O)cc2F)C2CCCCC2)c(OC)n1 (stereo not shown) [Example 46, 4-{2-Cyclohexyl-2-[2-(2,6-dimethoxy-pyridin-3-yl)-5,6-difluoro-benzoimidazol-1-yl]-ethoxy}-3-fluoro-benzoic acid] has a pIC50 (read-out: h-IC50 Binding) of 7.00.
For O=C(O)C1(Oc2ccc(OCC(C3CCCCC3)n3c(-c4ccc(Cl)cc4)nc4cc(F)c(F)cc43)nc2)CC1 (stereo not shown) [Example 50, 1-(6-{2-[2-(4-Chloro-phenyl)-5,6-difluoro-benzoimidazol-1-yl]-2-cyclohexyl-ethoxy}-pyridin-3-yloxy)-cyclopropanecarboxylic acid], the pIC50 (read-out: h-IC50 Binding) was 7.00.
Compound Cc1cc(C(=O)O)cc(C)c1OCC(C1CCCCC1)n1c(-c2ccc(Cl)cc2)nc2cc(F)c(F)cc21 (stereo not shown) [Example 53, 4-{2-[2-(4-Chloro-phenyl)-5,6-difluoro-benzoimidazol-1-yl]-2-cyclohexyl-ethoxy}-3,5-dimethyl-benzoic acid] has a pIC50 (read-out: h-IC50 Binding) of 7.52.
